Legend:
Assay type in all cases: cell-based
[1] = test system: DLD-1; assay: MTT cytotoxicity assay, DLD-1; conditions: DLD-1, colon, 72 hr, read-out: IC50, cell killing
Procedure: (§1) All cell lines were obtained from the American Type Culture Collection (ATCC) and cultured in the specified medium supplemented with 10% fetal bovine serum, 100 IU/mL penicillin, and 100 μg/mL streptomycin at 37° C. in a humidified 5% CO2/95% air incubator. To assess drug cytotoxicity cells were seeded at 2,500 cells/well (10,000 cells/well for MM lines and primary cells) in 100 μL medium in 96-well plate. […]
(§2) It was examined whether the RPN13 inhibitor, RA475, was cytotoxic for cancer cell lines using the MTT assay.

[2] = test system: PEO23; assay: MTT cytotoxicity assay, PEO23; conditions: PEO23, ovarian, 72 hr, read-out: IC50, cell killing
Procedure: as §1, §2

[3] = test system: Br23C; assay: MTT cytotoxicity assay, Br23C; conditions: glioblastoma multiforme, 72 hr, read-out: IC50, cell killing
Procedure: as §1, §2

[4] = test system: ES2; assay: MTT cytotoxicity assay, ES2; conditions: ES2, ovarian, 72 hr, read-out: IC50, cell killing
Procedure: as §1, §2

[5] = test system: ES2; assay: Flow cytometry analysis of cell death, ES2; conditions: 1 μM or 2 μM, 16 hr
Procedure: (§3) 10^5 cells were re-suspended in binding buffer, 5 μL of Annexin V-PE (Apoptosis Detection Kit I (BD Pharmingen) and 5 μL of 7-AAD were then added into the cells, which were then incubated at room temperature for 15 minutes and analyzed by flow cytometry on a FACSCalibur using CellQuest software (Becton Dickinson).
(§4) Two ovarian cancer cell lines, ES2 and OVCAR3, were treated with 1 μM or 2 μM RA475 and 16 hr later the cells were harvested and stained with 7-AAD and Annexin V. 7-AAD is a DNA dye that can enter dying cells and Annexin V is commonly used to detect apoptotic cells by its ability to bind to phosphatidylserine, an early marker of apoptosis when it is exposed on the outer leaflet of the plasma membrane.

[6] = test system: OVCAR3; assay: Flow cytometry analysis of cell death, OVCAR3; conditions: 1 μM or 2 μM, 16 hr
Procedure: as §3, §4

[7] = test system: human foreskin fibroblasts (HFF); assay: MTT cytotoxicity assay, human foreskin fibroblasts; conditions: non-transformed human foreskin fibroblasts, 72 hr, highest concentration tested 2.5 μM, read-out: IC50, cell killing
Procedure: as §1, §2

[8] = test system: cancer cells; assay: MTT cytotoxicity assay, cancer cell lines overall; conditions: all solid cancer-derived cell lines tested (Table 1)
Procedure: All cell lines were obtained from the American Type Culture Collection (ATCC) and cultured in the specified medium supplemented with 10% fetal bovine serum, 100 IU/mL penicillin, and 100 μg/mL streptomycin at 37° C. in a humidified 5% CO2/95% air incubator. To assess drug cytotoxicity cells were seeded at 2,500 cells/well (10,000 cells/well for MM lines and primary cells) in 100 μL medium in 96-well plate. The cells were treated with compounds for 48 h, and cells were incubated according to the manufacturer's protocol with the Thiazolyl Blue Tetrazolium Bromide (Sigma, M2128) and A570 measured using a Benchmark Plus microplate spectrophotometer (BIO-RAD).
as §2

[9] = test system: TSH1; assay: MTT cytotoxicity assay, TSH1; conditions: TSH1, thyroid, 72 hr, read-out: IC50, cell killing
Procedure: as §1, §2

[10] = test system: MC38; assay: MTT cytotoxicity assay, MC38; conditions: MC38, colon, 72 hr, read-out: IC50, cell killing
Procedure: as §1, §2

[11] = test system: 4T1; assay: MTT cytotoxicity assay, 4T1; conditions: 4T1, breast (TNBC), 72 hr, read-out: IC50, cell killing
Procedure: as §1, §2

[12] = test system: U251MG; assay: MTT cytotoxicity assay, U251MG; conditions: glioblastoma multiforme, 72 hr, read-out: IC50, cell killing
Procedure: as §1, §2

Cl.Cl.N#Cc1ccc(/C=C2/C(=O)/C(=C/c3ccc(C#N)cc3)C23CCN(C(=N)N)CC3)cc1 [RA475]
IC50 [1]: 491 nM | IC50 [2]: 350 nM | IC50 [3]: 750 nM | IC50 [4]: 160 nM | 7-AAD and Annexin V double positive cells [5]: dose-dependent induction | 7-AAD and Annexin V double positive cells [6]: dose-dependent induction | IC50 [7]: > 2500 nM | IC50 across cancer cell lines [8]: Sub micromolar | IC50 [9]: 114 nM | IC50 [10]: 359 nM | IC50 [11]: 261 nM | IC50 [12]: 600 nM
